Laboratory results published in the supplement of paper PMC10307832.

Legend:
Test in all cases: relative viability (nuclei count vs DMSO), 5 days (fraction); higher = more cells survive
HCC-15 = system: HCC-15
How it was run: (§1)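 A single step with final 0.05% Triton X-100, 1% formaldehyde and 1 ug/ml Hoechst fixed the cells and stained nuclei 5 days after treatment. Lung cancer cell lines in 1536-well plates had been treated by pin tool the day after seeding with one drug alone or a fixed anchor-drug dose plus five library-drug doses (not always all listed) in √10 steps, and nuclei were counted on 4× images. Relative viability is the ratio of nuclei in treated wells to nuclei in vehicle wells, taken as the median of duplicate plates.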

NCI-H1734 = system: NCI-H1734
How it was run: as §1

HARA = system: HARA
How it was run: as §1

NCI-H2009 = system: NCI-H2009
How it was run: as §1

NCI-H1993 = system: NCI-H1993
How it was run: as §1

SW 1573 = system: SW 1573
How it was run: as §1

NCI-H1650 = system: NCI-H1650
How it was run: as §1

NCI-H2023 = system: NCI-H2023
How it was run: as §1

HCC-78 = system: HCC-78
How it was run: as §1

LOU-NH91 = system: LOU-NH91
How it was run: as §1

LCLC-97TM1 = system: LCLC-97TM1
How it was run: as §1

COR-L23 = system: COR-L23
How it was run: as §1

A-427 = system: A-427
How it was run: as §1

201T = system: 201T
How it was run: as §1

HCC-44 = system: HCC-44
How it was run: as §1

ChaGo-K-1 = system: ChaGo-K-1
How it was run: as §1

NCI-H441 = system: NCI-H441
How it was run: as §1

RERF-LC-KJ = system: RERF-LC-KJ
How it was run: as §1

HCC-366 = system: HCC-366
How it was run: as §1

NCI-H2126 = system: NCI-H2126
How it was run: as §1

NCI-H460 = system: NCI-H460
How it was run: as §1

Q: Which results are given for `O=c1[nH]c2ccccc2n1C1CCN(CCCC(c2ccc(F)cc2)c2ccc(F)cc2)CC1` [Pimozide] + CC1(C)CCC(c2ccc(Cl)cc2)=C(CN2CCN(c3ccc(C(=O)NS(=O)(=O)c4ccc(N[C@H](CCN5CCOCC5)CSc5ccccc5)c(S(=O)(=O)C(F)(F)F)c4)cc3)CC2)C1 [Navitoclax] (partner 0.5 µM)?
A: relative viability (HCC-15; first compound 0.08 µM): 0.797; relative viability (HCC-15; first compound 0.253 µM): 0.724; relative viability (HCC-15; first compound 0.8 µM): 0.66; relative viability (HCC-15; first compound 2.53 µM): 0.636; relative viability (HCC-15; first compound 8 µM): 0.621; relative viability (NCI-H1734; first compound 0.08 µM): 0.894; relative viability (NCI-H1734; first compound 0.253 µM): 0.806; relative viability (NCI-H1734; first compound 0.8 µM): 0.764; relative viability (NCI-H1734; first compound 2.53 µM): 0.83; relative viability (NCI-H1734; first compound 8 µM): 0.836; relative viability (HARA; first compound 0.08 µM): 1.11; relative viability (HARA; first compound 0.253 µM): 1.18; relative viability (HARA; first compound 0.8 µM): 1.1; relative viability (HARA; first compound 2.53 µM): 1.12; relative viability (HARA; first compound 8 µM): 1.14; relative viability (NCI-H2009; first compound 0.08 µM): 1.2; relative viability (NCI-H2009; first compound 0.253 µM): 1.14; relative viability (NCI-H2009; first compound 0.8 µM): 1.13; relative viability (NCI-H2009; first compound 2.53 µM): 1.2; relative viability (NCI-H2009; first compound 8 µM): 1.01; relative viability (NCI-H1993; first compound 0.08 µM): 0.797; relative viability (NCI-H1993; first compound 0.253 µM): 0.826; relative viability (NCI-H1993; first compound 0.8 µM): 0.91; relative viability (NCI-H1993; first compound 2.53 µM): 0.933; relative viability (NCI-H1993; first compound 8 µM): 0.806; relative viability (SW 1573; first compound 0.08 µM): 0.92; relative viability (SW 1573; first compound 0.253 µM): 1.04; relative viability (SW 1573; first compound 0.8 µM): 0.799; relative viability (SW 1573; first compound 2.53 µM): 1.02; relative viability (SW 1573; first compound 8 µM): 0.796; relative viability (NCI-H1650; first compound 0.08 µM): 0.979; relative viability (NCI-H1650; first compound 0.253 µM): 1.17; relative viability (NCI-H1650; first compound 0.8 µM): 1.02; relative viability (NCI-H1650; first compound 2.53 µM): 1.21; relative viability (NCI-H1650; first compound 8 µM): 0.761; relative viability (NCI-H2023; first compound 0.08 µM): 1.03; relative viability (NCI-H2023; first compound 0.253 µM): 1.03; relative viability (NCI-H2023; first compound 0.8 µM): 0.988; relative viability (NCI-H2023; first compound 2.53 µM): 0.957; relative viability (NCI-H2023; first compound 8 µM): 0.832; relative viability (HCC-78; first compound 0.08 µM): 0.764; relative viability (HCC-78; first compound 0.253 µM): 0.717; relative viability (HCC-78; first compound 0.8 µM): 0.893; relative viability (HCC-78; first compound 2.53 µM): 0.71; relative viability (HCC-78; first compound 8 µM): 0.691; relative viability (LOU-NH91; first compound 0.08 µM): 0.309; relative viability (LOU-NH91; first compound 0.253 µM): 0.734; relative viability (LOU-NH91; first compound 0.8 µM): 0.736; relative viability (LOU-NH91; first compound 2.53 µM): 0.788; relative viability (LOU-NH91; first compound 8 µM): 0.739; relative viability (LCLC-97TM1; first compound 0.08 µM): 0.527; relative viability (LCLC-97TM1; first compound 0.253 µM): 0.489; relative viability (LCLC-97TM1; first compound 0.8 µM): 0.215; relative viability (LCLC-97TM1; first compound 2.53 µM): 0.415; relative viability (LCLC-97TM1; first compound 8 µM): 0.402; relative viability (COR-L23; first compound 0.08 µM): 1.02; relative viability (COR-L23; first compound 0.253 µM): 0.923; relative viability (COR-L23; first compound 0.8 µM): 0.913; relative viability (COR-L23; first compound 2.53 µM): 1.14; relative viability (COR-L23; first compound 8 µM): 0.933; relative viability (A-427; first compound 0.08 µM): 0.965; relative viability (A-427; first compound 0.253 µM): 1.01; relative viability (A-427; first compound 0.8 µM): 0.913; relative viability (A-427; first compound 2.53 µM): 0.88; relative viability (A-427; first compound 8 µM): 0.918; relative viability (201T; first compound 0.08 µM): 1.19; relative viability (201T; first compound 0.253 µM): 1.25; relative viability (201T; first compound 0.8 µM): 1.19; relative viability (201T; first compound 2.53 µM): 1.18; relative viability (201T; first compound 8 µM): 1.15; relative viability (HCC-44; first compound 0.08 µM): 0.965; relative viability (HCC-44; first compound 0.253 µM): 1; relative viability (HCC-44; first compound 0.8 µM): 0.95; relative viability (HCC-44; first compound 2.53 µM): 0.884; relative viability (HCC-44; first compound 8 µM): 0.971; relative viability (ChaGo-K-1; first compound 0.08 µM): 0.861; relative viability (ChaGo-K-1; first compound 0.253 µM): 0.935; relative viability (ChaGo-K-1; first compound 0.8 µM): 0.974; relative viability (ChaGo-K-1; first compound 2.53 µM): 1.01; relative viability (ChaGo-K-1; first compound 8 µM): 0.941; relative viability (NCI-H441; first compound 0.08 µM): 0.685; relative viability (NCI-H441; first compound 0.253 µM): 0.697; relative viability (NCI-H441; first compound 0.8 µM): 0.75; relative viability (NCI-H441; first compound 2.53 µM): 0.487; relative viability (NCI-H441; first compound 8 µM): 0.346; relative viability (RERF-LC-KJ; first compound 0.08 µM): 0.913; relative viability (RERF-LC-KJ; first compound 0.253 µM): 0.855; relative viability (RERF-LC-KJ; first compound 0.8 µM): 0.885; relative viability (RERF-LC-KJ; first compound 2.53 µM): 1.04; relative viability (RERF-LC-KJ; first compound 8 µM): 0.92; relative viability (HCC-366; first compound 0.08 µM): 1.01; relative viability (HCC-366; first compound 0.253 µM): 1.12; relative viability (HCC-366; first compound 0.8 µM): 1.02; relative viability (HCC-366; first compound 2.53 µM): 0.986; relative viability (HCC-366; first compound 8 µM): 0.976; relative viability (NCI-H2126; first compound 0.08 µM): 0.835; relative viability (NCI-H2126; first compound 0.253 µM): 0.827; relative viability (NCI-H2126; first compound 0.8 µM): 0.841; relative viability (NCI-H2126; first compound 2.53 µM): 0.824; relative viability (NCI-H2126; first compound 8 µM): 0.868; relative viability (NCI-H460; first compound 0.08 µM): 1.19; relative viability (NCI-H460; first compound 0.253 µM): 1.12; relative viability (NCI-H460; first compound 0.8 µM): 1.06; relative viability (NCI-H460; first compound 2.53 µM): 1.06; relative viability (NCI-H460; first compound 8 µM): 0.957
